What was measured:
Format in all cases: physicochemical
[1] = Chemical stability in aqueous state, 25° C., 4 weeks in complete darkness, HPLC; settings: distilled water
Description: (§1) HPLC Analysis Conditions: • Detector: UV Absorbance (at 237 nm) • Column: Octadesyl silica gel C18 (4.6 mm×150 mm, 5 μm) • Mobile Phase: Potassium dihydrogenphosphate monobasic (0.03M): methanol=4:6 (v/v) • Flow Rate: 1.5 ml/min
The resulting aqueous solutions were stored at 25° C. for 4 weeks in complete darkness, after which a measurement was made of the contents of the salts with resort to HPLC under the same conditions as in the solid state.

[2] = Chemical stability in solid state, accelerated test at 60° C., HPLC content
Description: as §1

[3] = Test for hygroscopicity: water content (K. F. water %) at 25° C. under various humidity conditions; settings: for water content (K. F. water %): 25° C.
physchem = settings: 37 °C

SMILES	stability in aqueous state (decomposition products, content change) [1]	change in content, accelerated test [2]	HPLC content ([2]; 1 week) [%]	HPLC content ([2]; 2 weeks) [%]	HPLC content ([2]; 3 weeks) [%]	HPLC content ([2]; initial) [%]	water content (K. F. water %) ([3]; 25% RH, 1 week storage) [%]	water content (K. F. water %) ([3]; 60% RH, 1 week storage) [%]	water content (K. F. water %) ([3]; 75% RH, 1 week storage) [%]	water content (K. F. water %) ([3]; 95% RH, 1 week storage) [%]	water content (K. F. water %) ([3]; Initial) [%]	hygroscopicity ([3]; relative humidity 95%) [%]	solubility (physchem; pH 2, aqueous buffer) [mg/mL]	solubility (physchem; pH 4, aqueous buffer) [mg/mL]	solubility (physchem; pH 6, aqueous buffer) [mg/mL]	solubility (physchem; pH 7, aqueous buffer) [mg/mL]	solubility (physchem; pH 7.4, aqueous buffer) [mg/mL]	solubility (physchem; pH 8, aqueous buffer) [mg/mL]	solubility (physchem; water) [mg/mL]
CCOC(=O)C1=C(COCCN)NC(C)=C(C(=O)OC)C1c1ccccc1Cl (stereo not drawn) [Besylate, amlodipine besylate, reference compound]	neither decomposition products nor content change is found	virtually no changes	99.6	99.4	99.2	99.6	0.10	0.09	0.15	0.17	0.14	–	–	–	–	–	–	–	–
CCOC(=O)C1=C(COCCN)NC(C)=C(C(=O)OC)C1c1ccccc1Cl.CCS(=O)(=O)O (stereo not drawn) [Ethanesulfonate, amlodipine ethanesulfonate]	neither decomposition products nor content change is found	virtually no changes	99.6	99.6	99.5	99.7	0.08	0.09	0.13	0.15	0.12	≤ 0.5	> 200	> 200	> 200	> 200	> 200	> 200	> 200

From patent publication US6903124B2, “Organic acid salt of amlodipine” (CJ Corp, priority 2002, dated 2005)
